# Test results from patent US12264142B2, “Heterocyclic compounds” (FLORATEK PHARMA SA, priority 2019, dated 2025).
# “Also recorded” adds a separate entry of the source.
# Legend:
# KEGG pathways = assay: KEGG pathway mapping of differentially-expressed genes; format: in vivo, C. elegans
# Text: To determine which among recognized aging-related pathways were most likely modulated by treatment with the SND303 compound, and to estimate their relative contributions, two approaches were undertaken. In one approach, the genes differentially expressed after treatment were mapped to pathways in the KEGG database, a curated knowledgebase of biological pathways. This placed the transcriptomic data within the context of well-characterized biological pathways, particularly several related to longevity.
# Several of these genes matched to the canonical longevity pathways as curated in KEGG (FIG. 5). […] At Day 10, however, many more pathways were represented among differentially-expressed genes and each individual pathway was more richly populated with differentially-expressed genes. The most prominent increase was in the expression of genes involved in Oxidative Phosphorylation, possibly indicating maintenance of mitochondrial function. In addition, several components of the canonical Longevity Regulating Pathway are represented. With closer examination of these the differential expression of the gene encoding Target of Rapamycin (TOR) is notable. When the TOR pathways itself was expanded, several more differentially-expressed genes were represented that were not explicitly indicated in the Longevity Regulating Pathway. Applying this process with the other pathways and modules linked to the Longevity Regulating Pathway, a coherent hypothetical pathway of action emerges.
# aging-related pathways = assay: Pathway transcriptional profile score analysis; format: in vivo, C. elegans
# Text: In the second approach, the transcriptomic profile of worms treated with SND303 compound was compared with published transcriptomes in which specific aging-related pathways have been manipulated. In contrast with the first approach, this blindly scores how the data fits with published transcriptomic signatures of aging.
# Frequently cited and relevant studies analyzing the transcriptomic signatures of aging-related pathways in C. elegans were selected for this analysis. […] To generate a transcriptional profile score, the log fold change for each key gene in each pair of comparison (e.g. SND303 vs. negative control) is multiplied by a direction-specific factor and assigned a positive or negative value based on whether the change is in the same direction as reported in the literature. All the gene scores for a given pathway are summed up to produce one aggregated score per pathway for each pair of comparison.
# [1] = test system: N2 wild type strain of worms; assay: C. elegans life span (survival) assay, manual scoring (SND301); format: in vivo
# Experimental: The survival assay was conducted in the presence of 50 μM SND301 with measurements of live, dead, and censored worms at time points every 2-3 days from the start of adulthood.
# Thioflavin T was used in the assay as a positive control [Gamir-Morralla A et al, 2019, “Effects of Thioflavin T and GSK-3 Inhibition on Lifespan and Motility in a Caenorhabditis elegans Model of Tauopathy”, J Alzheimers Dis Rep., 3(1): 47-57]. Vehicle 25% and 1% DMSO were used as controls and represent the vehicles in which compounds and bacteria or bacteria alone respectively were resuspended. The final DMSO concentration in the agar plates was 0.5% and 0.02% respectively.
# 5 mM DMSO stock solutions for each compound were prepared in high-grade DMSO. Stocks were protected from light and stored in glass vials at 21° C. in a temperature-controlled room (to avoid freeze/thaw of DMSO). A fresh stock was prepared at the start of each experiment and stored for <1 week.
# The lifespan assay was designed and performed according to published and validated methods with modifications for chemical treatment [Amrit F R G et al, 2014, “The C. elegans lifespan assay toolkit”, METHODS 68, 465-475; Leukanic, et. Al, “Manual Lifespan Assay Standard Operating Procedure”, Caenorhabditis Intervention Testing Program, https://figshare.com/articles/7_CITP_SOP_Manual_Lifespan_Assay/9738197/1]. Plates were seeded with compound dissolved in 25% DMSO and bacteria. The DMSO diffused through the agar to reach a final concentration of 0.5%. Synchronized day 1 adult worms were transferred to seeded plates containing compound and allowed to lay eggs for 2 hours (Day 0, “hatchoff”). The young adults were then removed, and the eggs were incubated at 20° C. until they had reached the young adult stage (day 3). 200 young adult worms per treatment were transferred to 8 fresh seeded 35 mm dishes with compound and 50 μM 5-Fluorodeoxyuridine to suppress progeny. […] Worms that were missing, stuck to the dish, burrowed, injured, or exploded were scored as censored and removed from the plate. To maintain chemical exposure at the experimental concentrations, worms were transferred every other scoring day to new seeded plates with compound.
# C. elegans = conditions: Ryu et al 2016; cited from earlier work
# [2] = Day 10, against negative control
# [3] = end of the study, SND301 and Urolithin A 50 μM
structure (smiles),measurement,setting,value
CC(C)NC(=O)Oc1ccc2c(c1)oc(=O)c1cc(OC(=O)NC(C)C)ccc12 [SND303],cel00980 Metabolism of xenobiotics by cytochrome P450: differentially-expressed genes,KEGG pathways; Day 3,gst-4; Glutathione S-transferase 4; also recorded: sodh-1; Alcohol dehydrogenase 1; also recorded: gst-5; Probable glutathione S-transferase 5
same,cel04212 Longevity regulating pathway: differentially-expressed genes,KEGG pathways; Day 3,gst-4; Glutathione S-transferase 4; also recorded: gst-5; Probable glutathione S-transferase 5; also recorded: ctl-2; Peroxisomal catalase 1
same,cel00190 Oxidative phosphorylation: differentially-expressed genes,KEGG pathways; Day 10,15 genes
same,cel03040 Spliceosome: differentially-expressed genes,KEGG pathways; Day 10,10 genes
same,cel03050 Proteasome: differentially-expressed genes,KEGG pathways; Day 10,11 genes
same,cel04010 MARK signaling pathway: differentially-expressed genes,KEGG pathways; Day 10,mtk-1; Protein kinase domain-containing protein; also recorded: fln-2; FiLamiN (actin binding protein) homolog; also recorded: nsy-1; Mitogen-activated protein; also recorded: mnk-1; MAP kinase-interacting; also recorded: pxf-1; Rap guanine nucleotide exchange factor; also recorded: ced-2; Cell death abnormality protein 2; also recorded: daf-2; Insulin-like receptor subunit beta
same,cel04120 Ubiquitin mediated proteolysis: differentially-expressed genes,KEGG pathways; Day 10,6 genes
same,cel04140 Autophagy: differentially-expressed genes,KEGG pathways; Day 10,let-363; Target of rapamycin homolog; also recorded: daf-15; Raptor_N domain-containing protein; also recorded: pek-1; Eukaryotic translation initiation; also recorded: atg-2; Autophagy-related protein 2; also recorded: cpl-1; Cathepsin L-like; also recorded: epg-7; ATG11 domain-containing protein; also recorded: ragc-1; RAs-related GTP binding; also recorded: unc-51; Serine/threonine-protein kinase unc-51
same,cel04141 Protein processing in endoplasmic reticulum: differentially-expressed genes,KEGG pathways; Day 10,pdi-2; Protein disulfide-isomerase 2; also recorded: cup-2; Derlin-1; also recorded: skr-2; SKp1 Related (ubiquitin ligase; also recorded: pek-1; Eukaryotic translation initiation; also recorded: uggt-1; UDP-Glucose Glycoprotein; also recorded: nsy-1; Mitogen-activated protein kinase; also recorded: rbx-1; RING-box protein 1; also recorded: Protein transport protein Sec61 subunit gamma
same,cel04150 mTOR signaling pathway: differentially-expressed genes,KEGG pathways; Day 10,let-363; Target of rapamycin homolog; also recorded: daf-15; Raptor_N domain-containing protein; also recorded: rict-1; RICTOR_V domain-containing protein; also recorded: T08A11.1; DEP domain-containing protein; also recorded: ragc-1; RAs-related GTP binding; also recorded: Y32H12A.8; WD_Repeats domain-containing; also recorded: daf-2; Insulin-like receptor subunit beta; also recorded: unc-51; Serine/threonine-protein kinase unc-51
same,cel04212 Longevity regulating pathway-worm: differentially-expressed genes,KEGG pathways; Day 10,"let-363; Target of rapamycin homolog; also recorded: sod-2; Superoxide dismutase [Mn] 1, mitochondrial; also recorded: gst-7; Probable glutathione S-transferase 7; also recorded: fat-6; Delta(9)-fatty-acid desaturase fat-6; also recorded: daf-2; insulin-like receptor subunit beta; also recorded: unc-51; Serine/threonine-protein kinase unc-51"
same,cel04361 Axon regeneration: differentially-expressed genes,KEGG pathways; Day 10,7 genes
same,"Transcriptional profile score, overall","aging-related pathways; Day 3, against negative control",little deviation from the control
same,"Transcriptional profile score, Oxidative stress response",aging-related pathways; [2],strong negative score
same,"Transcriptional profile score, overall",aging-related pathways; [2],greatest overall profile contrast with control
"O=c1oc2cc(O)ccc2c2ccc(O)cc12 [Urolithin A, reference compound]",Death events,"[1]; Table 1A, at a certain point during the study, N2, SND301 and Urolithin A 50 μM",47
same,% Complete,"[1]; Table 1A, deaths attributed to aging from total worm population, at a certain point during the study, N2",25.7%
same,Death events,"[1]; Table 1B, end of the study, SND301 and Urolithin A 50 μM",178
same,Maximum life span,[1]; [3],35 days
same,Median lifespan,[1]; [3],21 days
same,Effect on lifespan,C. elegans,extended lifespan
